Source: ChEMBL document CHEMBL1125470, “Novel sulfonamides as potential, systemically active antitumor agents” (J Med Chem, 1992)
≈ marks a conversion by molar mass, not a printed value.

Key:
Mus musculus [1] = test: Ratio between dead mices and total mices at the dose of 25 (mg/kg/day.); 0/6; format: functional
Mus musculus [2] = test: Ratio between dead mices and total mices at the dose of 12.5 (mg/kg/day.); 0/6; format: functional
MC-38 [3] = test: Ratio between Tumor weight of treated mice and Tumor weight of control mice * 100 at the dose of 25 (mg/kg/day); format: functional
MC-38 [4] = test: In vitro inhibitory activity against colon 38 cell proliferation; format: functional, cell-based; conditions: Mus musculus
Mus musculus [5] = test: Ratio between dead mices and total mices at the dose of 50 (mg/kg/day.); 0/6; format: functional
MC-38 [6] = test: Ratio between Tumor weight of treated mice and Tumor weight of control mice * 100 at the dose of 12.5 (mg/kg/day); format: functional
KB = test: In vitro inhibitory activity against KB (human carcinoma of the nasopharynx) cell proliferation.; format: functional, cell-based
MC-38 [7] = test: Ratio between Tumor weight of treated mice and Tumor weight of control mice * 100 at the dose of 50 (mg/kg/day); format: functional
MC-38 [8] = test: Ratio between Tumor weight of treated mice and Tumor weight of control mice * 100 at the dose of 400 (mg/kg/day.); format: functional
Mus musculus [9] = test: Ratio between dead mices and total mices at the dose of 200 (mg/kg/day.); 0/6; format: functional
Mus musculus [10] = test: Ratio between dead mices and total mices at the dose of 100 (mg/kg/day.); 0/6; format: functional
Mus musculus [11] = test: Ratio between dead mices and total mices at the dose of 400 (mg/kg/day.); 0/6; format: functional
MC-38 [12] = test: Ratio between Tumor weight of treated mice and Tumor weight of control mice * 100 at the dose of 200 (mg/kg/day.); format: functional
MC-38 [13] = test: Ratio between Tumor weight of treated mice and Tumor weight of control mice * 100 at the dose of 100 (mg/kg/day.); format: functional
MC-38 [14] = test: Ratio between Tumor weight of treated mice and Tumor weight of control mice * 100 at the dose of 50 (mg/kg/day.); format: functional
Mus musculus [15] = test: Ratio between dead mices and total mices at the dose of 200 (mg/kg/day.); 2/6; format: functional
MC-38 [16] = test: Ratio between Tumor weight of treated mice and Tumor weight of control mice * 100 at the dose of 200 (mg/kg/day); format: functional
MC-38 [17] = test: Ratio between Tumor weight of treated mice and Tumor weight of control mice * 100 at the dose of 100 (mg/kg/day); format: functional

| SMILES | Deaths/total (Mus musculus [1]) | Deaths/total (Mus musculus [2]) | T/C (MC-38 [3]) | IC50 (MC-38 [4]) | Deaths/total (Mus musculus [5]) | T/C (MC-38 [6]) | IC50 (KB) | T/C (MC-38 [7]) | T/C (MC-38 [8]) | Deaths/total (Mus musculus [9]) | Deaths/total (Mus musculus [10]) | Deaths/total (Mus musculus [11]) | T/C (MC-38 [12]) | T/C (MC-38 [13]) | T/C (MC-38 [14]) | Deaths/total (Mus musculus [15]) | T/C (MC-38 [16]) | T/C (MC-38 [17]) |
| --- | --- | --- | --- | --- | --- | --- | --- | --- | --- | --- | --- | --- | --- | --- | --- | --- | --- | --- |
| COc1ccc(S(=O)(=O)Nc2cccnc2Nc2ccncc2)cc1 | 0 | 0 | 35% | 1.4 µg/mL (≈ 3.93 µM) | 0 | 41% | 1 µg/mL (≈ 2.81 µM) | 14% |  |  |  |  |  |  |  |  |  |  |
| Cc1ccc(S(=O)(=O)Nc2cccnc2Nc2ccccc2)cc1 |  |  |  | 3.2 µg/mL (≈ 9.43 µM) |  |  | 1.5 µg/mL (≈ 4.42 µM) |  | 1% | 0 | 0 | 0 | 19% | 20% |  |  |  |  |
| Cc1ccc(S(=O)(=O)Nc2ccccc2Nc2ccccc2)cc1 |  |  |  | 1.2 µg/mL (≈ 3.55 µM) |  |  | 0.46 µg/mL (≈ 1.36 µM) |  |  |  |  |  |  |  |  |  |  |  |
| COc1ccc(S(=O)(=O)Nc2cccnc2Nc2ccccc2)cc1 |  |  |  | 0.45 µg/mL (≈ 1.27 µM) | 0 |  | 0.27 µg/mL (≈ 0.76 µM) |  |  | 0 | 0 |  | 1% | 2% | 27% |  |  |  |
| COc1ccc(Nc2ncccc2NS(=O)(=O)c2ccc(OC)cc2)cc1 |  |  |  | 3.6 µg/mL (≈ 9.34 µM) | 0 |  | 1.9 µg/mL (≈ 4.93 µM) |  |  |  | 0 |  |  | 1% | 30% | 2 | 0% |  |
| COc1ccc(S(=O)(=O)Nc2cccnc2Nc2ccc(O)cc2)cc1 [ABT-751] | 0 | 0 | 32% | 0.38 µg/mL (≈ 1.02 µM) | 0 | 59% | 0.29 µg/mL (≈ 0.781 µM) | 3% |  |  | 0 |  |  |  |  |  |  | 2% |
